Data: patent US10947196B2, “Beta adrenergic agonist and methods of using the same” (CURASEN THERAPEUTICS, INC., priority 2019, dated 2021)
pEC50: −log10 of the molar value. Read-outs that look alike come from different tables or passages of the source.

Experiments:
Type in all cases: cell-based
[1] = target: β1-adrenergic receptor (Homo sapiens (Human), UniProt P08588); experiment: cAMP Gs dynamic HTRF assay, β1 expressing CHO cells; settings: for EC50 / Average pEC50 [Receptor subtype: B1-AR; Cell type: CHO-K1 (HitHunter)]: CHO-K1 (HitHunter); for EC50: read-out: Average pEC50 [Receptor subtype: B1-AR, Cell type: CHO-K1 (HitHunter)] (converted)
How it was run: (§1)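 Intracellular cAMP quantified by Eu-donor/d2-acceptor HTRF after 30 min compound exposure at 37° C in stimulation buffer with IBMX. Concentrations ran 10 μM top, 5-fold steps, 10 points. Cell lines: 1321N1 astrocytoma and CHO expressing β1 or β2; EC50 via four-parameter fit, relative efficacy against isoproterenol.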

[2] = target: β2 adrenergic receptors in human astrocytoma cells (1321N1) (Homo sapiens (Human), UniProt P07550); experiment: cAMP HTRF assay in human astrocytoma cells (1321N1); settings: Endogenous receptor, 1321N1 cells; for EC50: read-out: Average pEC50 [Receptor subtype: Endogenous, Cell type: 1321N1] (converted)
Description: cAMP homogeneous time-resolved fluorescence (HTRF). Compound efficacy was determined using the cAMP Gs dynamic HTRF assay (Cisbio, catalog #62AM4PEC) largely following the manufacturer's instructions, also detailed below.
Compound preparation. […] Standard serial dilution curves were 10-point, 5-fold dilutions starting from a highest concentration of 10 μM. […] Assay plates were centrifuged at 500×g for 10 seconds. Compounds and IBMX were prepared at 2× final dose to compensate for addition of cells.
Cell preparation. 1× stimulation buffer, washing PBS (Dulbecco's phosphate-buffered saline, −Mg −Ca; Caisson Labs, catalog #PBL01), assay PBS (Dulbecco's phosphate-buffered saline, +Mg, +Ca; Caisson Labs, catalog #PBL02) and Versene (0.02% EDTA disodium salt solution in PBS without calcium or magnesium; Caisson Labs, catalog #EDL01) were pre-warmed to 37° C. Cells expressing beta-adrenergic receptor were washed in washing PBS to remove growth medium and then released from the surface by incubating with Versene for 5-10 minutes at 37° C. Cells were harvested using assay PBS, counted manually by hemocytometer or by an automated cell counter, pelleted by centrifugation (200×g, 5 minutes) and resuspended in 37° C. 1× stimulation buffer to a final density of 1.5×10^6 cells/mL. 5 μL of the suspended cell solution (7500 cell total) were added to all wells of the 384 well assay plate, the assay plate was covered with an Axygen® plate seal (Corning PCR-SP) and incubated in a humidified 37° C. environment supplemented with 5% CO2 for 30 minutes.
HTRF reagent addition, reading and data analysis. After 30 minutes of cell stimulation with test compound, the assay plates were centrifuged at 500×g for 10 seconds, and incubation was stopped with the addition of 5 μL cAMP-D2 acceptor, diluted 1:21 in detection and lysis buffer 2 (Cisbio 62CL2FDF) was added to all cells. Subsequently, 5 μL Anti-cAMP-Eu Donor, diluted 1:21 in detection and lysis buffer 2, was added to cells. Plates were sealed and reactions gently ‘vortexed’ at 900 rpm on a Heidolph Titramax 1000 for at least 30 minutes at room temperature. Plates were centrifuged again at 500×g for 10 seconds, and HTRF was measured using a Tecan Spark plate reader at 50 flashes per well. […] Potency estimates (EC50) were derived from the four-parameter nonlinear regression of the concentration-effect curve and an estimate of relative efficacy was determined by comparing the magnitude of the test compound HTRF signal window (min−max dose) with the signal window of the full agonist control, isoproterenol.

[3] = target: β2 adrenergic receptor (Homo sapiens (Human), UniProt P07550); experiment: cAMP Gs dynamic HTRF assay, β2 expressing CHO cells; settings: for EC50: CHO-K1 (HitHunter), read-out: Average pEC50 [Receptor subtype: B2-AR, Cell type: CHO-K1 (HitHunter)] (converted)
How it was run: as §1

[4] = B1-AR, CHO-K cells, read-out: Average EC50 [Receptor subtype: B1-AR, Cell type: CHO-K]
[5] = B2-AR, CHO-K cells, read-out: Average EC50 [Receptor subtype: B2-AR, Cell type: CHO-K]

Sequence of β2 adrenergic receptor (P07550 whole entry, species assumed): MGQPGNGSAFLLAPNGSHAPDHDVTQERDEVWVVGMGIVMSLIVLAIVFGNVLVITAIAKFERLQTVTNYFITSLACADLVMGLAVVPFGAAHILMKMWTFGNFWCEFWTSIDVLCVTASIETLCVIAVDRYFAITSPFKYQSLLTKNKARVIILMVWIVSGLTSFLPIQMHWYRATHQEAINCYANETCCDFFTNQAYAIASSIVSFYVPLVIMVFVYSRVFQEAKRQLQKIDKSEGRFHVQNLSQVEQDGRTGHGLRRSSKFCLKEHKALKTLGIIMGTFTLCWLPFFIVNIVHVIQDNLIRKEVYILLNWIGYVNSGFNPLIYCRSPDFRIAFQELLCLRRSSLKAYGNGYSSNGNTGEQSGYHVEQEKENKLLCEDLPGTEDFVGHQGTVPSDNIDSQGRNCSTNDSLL
Sequence of β2 adrenergic receptors in human astrocytoma cells (1321N1) (P07550 whole entry): as the sequence (P07550 whole entry, species assumed) above
Sequence of β1-adrenergic receptor (P08588 whole entry, species assumed): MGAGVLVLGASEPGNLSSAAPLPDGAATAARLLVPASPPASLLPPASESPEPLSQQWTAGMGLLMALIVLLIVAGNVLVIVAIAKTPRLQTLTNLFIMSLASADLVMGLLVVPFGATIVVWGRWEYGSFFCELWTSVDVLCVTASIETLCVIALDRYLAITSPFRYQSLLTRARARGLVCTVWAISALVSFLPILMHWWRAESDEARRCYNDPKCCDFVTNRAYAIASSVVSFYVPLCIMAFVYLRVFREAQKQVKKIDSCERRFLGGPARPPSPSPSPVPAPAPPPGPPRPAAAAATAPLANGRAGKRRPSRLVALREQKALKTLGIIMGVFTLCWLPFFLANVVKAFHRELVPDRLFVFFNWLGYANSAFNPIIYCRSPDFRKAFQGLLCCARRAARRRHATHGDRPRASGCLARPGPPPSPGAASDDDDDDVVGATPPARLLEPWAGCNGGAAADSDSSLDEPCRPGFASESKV

Row | Compound | EC50 ([1]; B1-AR) [nM] | pEC50 [1, 4] | EC50 ([3]; B2-AR) [nM] | pEC50 [3, 5] | EC50 [2] [nM] | other results
1 | CC(C)(C)NC[C@H](O)c1cccnc1C1CC1 [Compound 03-54] | 100 to 1000 | 6.00 to 7.00 | 10 to 100 | 7.00 to 8.00 |  | Average pEC50 [Receptor subtype: Endogenous; Cell type: 1321N1] [2]: C (C = <7-6); pEC50 ([2]; read-out: Average EC50 [Receptor subtype: Endogenous, Cell type: 1321N1]): 6.00 to 7.00
2 | Cn1cc(-c2cccc([C@@H](O)CNC(C)(C)C)n2)cn1 [Compound 03-215] | 100 to 1000 |  | < 10 |  | 10 to 100 | 
3 | COc1ccc(C[C@@H](C)NC[C@H](O)c2ccc(C)nc2)cc1 [Compound 03-249] | < 10 |  | < 10 |  | < 10 | 
4 | CC(C)(C)NC[C@H](O)c1cccc(NC2CC(F)C2)n1 (stereo partly drawn) [Compound 03-272] | < 10 |  | < 10 |  | < 10 | 
5 | CNc1cccc([C@H](O)CNC(C)(C)C)n1 [Compound 03-142] | > 1000 | < 6.00 | 100 to 1000 | 6.00 to 7.00 | > 1000 | 
6 | CC(C)(C)NC[C@H](O)c1cccc(NC2CCC2)n1 [Compound 03-190] | 10 to 100 |  | < 10 |  | < 10 | 
7 | CC(C)(C)NC[C@H](O)c1cccc(C2CCOCC2)n1 [Compound 03-121] | 100 to 1000 | 7.00 to 8.00 | < 10 | > 8.00 | < 10 | 
8 | Cc1cccc([C@@H](O)CNC(C)(C)C)n1 [Compound 03-6] | 10 to 100 | 7.00 to 8.00 | 10 to 100 | 7.00 to 8.00 | 100 to 1000 | 
9 | CC(C)(C)NC[C@H](O)c1cccc(NC2CCCC2)n1 [Compound 03-191] | 10 to 100 |  | < 10 |  | < 10 | 
10 | CC(C)(C)NC[C@H](O)c1cccc(Oc2ccccc2)n1 [Compound 03-195] | 100 to 1000 |  | 10 to 100 |  | 10 to 100 | 
11 | C=CCc1ncccc1[C@@H](O)CNC(C)(C)C [Compound 03-243] | > 1000 |  | 10 to 100 |  | 100 to 1000 | 
12 | CC(C)(C)NC[C@H](O)c1cccc(-n2ccnn2)n1 [Compound 03-102] | 100 to 1000 |  | 10 to 100 |  | 10 to 100 | 
13 | CC(C)(C)NC[C@H](O)c1cccc(Nc2ccccc2)n1 [Compound 03-193] | < 10 |  | < 10 |  | < 10 | 
14 | CN(C)c1cccc([C@H](O)CNC(C)(C)C)n1 [Compound 03-154] | > 1000 | < 6.00 | > 1000 | < 6.00 |  | 
15 | Cc1ncc(F)cc1[C@@H](O)CNC(C)(C)C [Compound 03-258] | 100 to 1000 |  | 10 to 100 |  |  | 
16 | CC(C)(C)NC[C@@H](O)c1cccc(C(C)(F)F)n1 [Compound 03-170] |  | < 6.00 | 100 to 1000 | 6.00 to 7.00 |  | Average pEC50 [Receptor subtype: B1-AR; Cell type: CHO-K1 (HitHunter)] ([1]; B1-AR): D (D < 6)
17 | CC(C)(C)NC[C@@H](O)c1cccc(OC(F)(F)F)n1 [Compound 03-186] | > 1000 | < 6.00 | 100 to 1000 | 6.00 to 7.00 |  | 
18 | CC(C)(C)NC[C@@H](O)c1nc(C(F)(F)F)cc2ccccc12 [Compound 03-172] |  | < 6.00 |  | < 6.00 |  | 
19 | CC(C)(C)NCC(O)c1cccnc1Cl (stereo not drawn) [Compound 03-114] | 100 to 1000 | 6.00 to 7.00 | 10 to 100 | 7.00 to 8.00 |  | 

Row | Compound | EC50 ([1]; B1-AR) [nM] | pEC50 [1, 4] | EC50 ([3]; B2-AR) [nM] | pEC50 [3, 5] | EC50 [2] [nM] | other results
20 | CC(C)(C)NC[C@H](O)c1cc(C(F)(F)F)ccn1 [Compound 03-2] |  |  |  |  |  | pEC50 ([1]; cAMP HTRF, read-out: β1 EC50): < 6.00; pEC50 ([3]; cAMP HTRF, read-out: β2 EC50): 6.00 to 7.00
21 | CC(C)(C)NC[C@@H](O)c1ccc(C(F)(F)F)cn1 [Compound 03-125] | 100 to 1000 | 6.00 to 7.00 | 100 to 1000 | 6.00 to 7.00 |  | 
22 | C#Cc1ncccc1[C@@H](O)CNC(C)(C)C [Compound 03-75] | > 1000 |  | > 1000 |  |  | 
23 | CC(C)(C)NC[C@H](O)c1cccc(C2=NCCN2)n1 [Compound 03-86] | > 1000 |  | 100 to 1000 |  |  | 
24 | CC(C)(C)NC[C@H](O)c1cccnc1-c1c[nH]nn1 [Compound 03-76] | 100 to 1000 |  | 100 to 1000 |  |  | 
25 | CC(C)(C)NC[C@H](O)c1cccc(-c2cccc(Cl)c2)n1 [Compound 03-129] |  | 7.00 to 8.00 | < 10 | > 8.00 |  | Average pEC50 [Receptor subtype: B1-AR; Cell type: CHO-K1 (HitHunter)] ([1]; B1-AR): B (B = 8-7)
26 | CCNc1cccc([C@@H](O)CNC(C)(C)C)n1 [Compound 03-262] | 10 to 100 |  | < 10 |  |  | 
27 | CC(C)c1cccc([C@H](O)CNC(C)(C)C)n1 [Compound 03-176] | > 1000 | < 6.00 | 100 to 1000 | 6.00 to 7.00 |  | 
28 | CC(C)(C)NC[C@H](O)c1cccc(-c2ccc(F)cc2)n1 [Compound 03-145] | 10 to 100 | 7.00 to 8.00 | < 10 | > 8.00 |  | 
29 | COc1ccc([C@@H](O)CNC(C)(C)C)c(C)n1 [Compound 03-259] | 10 to 100 |  | < 10 |  |  | 
30 | CC(C)(C)NC[C@@H](O)c1cccc(NC2CC2)n1 [Compound 03-250] | > 1000 |  | 100 to 1000 |  |  | 
31 | Cc1ccc(-c2cccc([C@@H](O)CNC(C)(C)C)n2)cc1 [Compound 03-143] | > 1000 | < 6.00 | 100 to 1000 |  |  | 
32 | CC(C)(C)NC[C@H](O)c1cccc(Cl)n1 [Compound 03-231] | > 1000 |  | 10 to 100 |  |  | 
33 | CC(C)(C)NC[C@H](O)c1cccnc1C(C)(F)F [Compound 03-83] | > 1000 |  | 100 to 1000 |  |  | 
34 | CC(C)(C)NC[C@H](O)c1cccc(N2CCCCC2)n1 [Compound 03-137] | 100 to 1000 | 6.00 to 7.00 | < 10 | > 8.00 |  | 
35 | COc1ccc(C[C@@H](C)NC[C@H](O)c2cc(Cl)cnc2C)cc1 [Compound 03-271] | 100 to 1000 |  | 10 to 100 |  |  | 
36 | CNc1ccc([C@@H](O)CNC(C)(C)C)c(C)n1 [Compound 03-276] | 100 to 1000 |  | 10 to 100 |  |  | 
37 | O[C@H](CNC1Cc2ccccc2C1)c1cccc(C(F)(F)F)n1 [Compound 03-22] | > 1000 | < 6.00 | > 1000 | < 6.00 |  | 
